Measurements published in ChEMBL document CHEMBL1201862, “PubChem BioAssay data set” (2004).
Activity calls are given as the source filed them.

What was measured:
[1] = Fluorescence-based cell-based high throughput dose response assay for inhibitors of the interaction of nucleotide-binding oligomerization domain containing 2 (NOD2) and the receptor-interacting serine-threonine kinase 2 (RIPK2).; type: functional; settings: Homo sapiens
[2] = loss of viability in HepG2 cells – cell-based, CellTiter-Glo, cherry-picked, cytotoxicity control for Shn3 inhibitor project, dose response (AID 624134); type: functional
[3] = reduction of Shn3 3'UTR-driven luciferase in osteoblasts – cell-based, Clone20 osteoblasts, firefly luciferase, cherry-picked, dose response (AID 624132); type: functional;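 further: firefly luciferase luminescence from reporter carrying the Shn3 3'UTR in osteoblasts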
[4] = non-specific 3'UTR reporter inhibition in Clone20-Shn3RL – cell-based, Renilla luciferase, cherry-picked, counter-screen for Shn3 inhibitor project, dose response (AID 624133); type: functional
[5] = target: T1, Replicative DNA helicase DnaB (Mycobacterium tuberculosis, UniProt P9WMR3); test: DnaB intein splicing inhibitors, dose response, biochemical, cell-free fluorescence (AID 449749); type: functional
T1 sequence (P9WMR3 whole entry): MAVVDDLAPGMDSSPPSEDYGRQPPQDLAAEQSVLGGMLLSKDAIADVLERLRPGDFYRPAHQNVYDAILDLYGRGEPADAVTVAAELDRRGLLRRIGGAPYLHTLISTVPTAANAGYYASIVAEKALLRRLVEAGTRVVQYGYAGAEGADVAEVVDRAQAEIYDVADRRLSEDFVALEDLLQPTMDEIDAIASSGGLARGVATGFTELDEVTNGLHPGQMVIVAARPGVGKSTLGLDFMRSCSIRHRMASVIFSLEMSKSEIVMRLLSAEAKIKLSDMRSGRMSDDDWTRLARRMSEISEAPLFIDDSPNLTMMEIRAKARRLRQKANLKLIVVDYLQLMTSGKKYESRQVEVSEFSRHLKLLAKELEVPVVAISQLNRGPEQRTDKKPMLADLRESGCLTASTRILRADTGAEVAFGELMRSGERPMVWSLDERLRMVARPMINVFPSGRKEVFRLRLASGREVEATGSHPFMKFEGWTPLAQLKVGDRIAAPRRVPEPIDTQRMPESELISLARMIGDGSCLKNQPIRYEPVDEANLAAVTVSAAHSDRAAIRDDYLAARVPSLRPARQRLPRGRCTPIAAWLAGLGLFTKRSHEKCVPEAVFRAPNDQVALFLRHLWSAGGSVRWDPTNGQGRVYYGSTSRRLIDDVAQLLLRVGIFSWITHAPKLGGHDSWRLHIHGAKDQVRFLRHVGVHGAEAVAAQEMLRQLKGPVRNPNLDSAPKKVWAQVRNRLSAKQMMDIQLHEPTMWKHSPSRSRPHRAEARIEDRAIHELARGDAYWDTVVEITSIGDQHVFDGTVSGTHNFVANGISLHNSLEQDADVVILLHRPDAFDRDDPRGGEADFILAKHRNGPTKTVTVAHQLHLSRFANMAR

Protein RecA = target: T2, Protein RecA (Mycobacterium tuberculosis, UniProt P9WHJ3); test: Fluorescence Cell-Free Homogeneous Dose Retest to Identify Inhibitors of RecA-Intein Splicing Activity. [Related pubchem assays (depositor defined):AID2097, AID2223, AID489010, AID492950]; type: functional
T2 sequence (P9WHJ3 whole entry): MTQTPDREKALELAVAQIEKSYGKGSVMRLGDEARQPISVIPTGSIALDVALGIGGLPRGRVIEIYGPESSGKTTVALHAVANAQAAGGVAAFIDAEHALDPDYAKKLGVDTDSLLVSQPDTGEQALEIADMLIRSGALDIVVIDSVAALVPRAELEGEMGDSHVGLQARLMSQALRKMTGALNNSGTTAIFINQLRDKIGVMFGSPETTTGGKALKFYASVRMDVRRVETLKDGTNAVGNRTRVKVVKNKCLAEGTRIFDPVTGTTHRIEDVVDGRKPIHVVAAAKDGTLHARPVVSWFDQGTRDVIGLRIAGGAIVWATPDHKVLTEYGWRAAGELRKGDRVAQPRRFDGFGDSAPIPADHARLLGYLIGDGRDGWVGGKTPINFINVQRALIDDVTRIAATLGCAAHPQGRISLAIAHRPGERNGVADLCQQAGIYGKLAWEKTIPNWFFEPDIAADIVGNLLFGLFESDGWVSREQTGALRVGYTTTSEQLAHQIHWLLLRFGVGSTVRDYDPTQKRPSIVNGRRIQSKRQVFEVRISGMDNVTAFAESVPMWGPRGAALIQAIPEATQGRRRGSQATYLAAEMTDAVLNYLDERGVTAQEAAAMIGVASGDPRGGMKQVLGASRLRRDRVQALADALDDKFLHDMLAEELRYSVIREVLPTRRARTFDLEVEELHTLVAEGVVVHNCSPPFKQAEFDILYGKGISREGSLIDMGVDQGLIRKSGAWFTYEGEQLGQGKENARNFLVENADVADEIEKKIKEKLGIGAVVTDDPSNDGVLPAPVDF

Beta Lactamase = Beta Lactamase (Pseudomonas aeruginosa, UniProt Q932Y6); test: BLA reporter interference, concentration series – BLA reporter cells, FRET fluorescence, artefact control for NOD2-RIPK2 interaction inhibitor project, dose response (AID 651552); type: functional, cell-based
[6] = mouse fibroblast viability loss – cell-based, cherry-pick samples, set 2, cytotoxicity control for T. cruzi growth inhibitor project, dose response (AID 651817); type: functional; settings: NIH3T3
[7] = target: T3, Carboxy-terminal domain RNA polymerase II polypeptide A small phosphatase 1 (Homo sapiens, UniProt Q9GZU7); test: CTDSP1 inhibitors, concentration-response, biochemical, absorbance readout, ultra-high-throughput screen actives (AID 540297); type: functional
T3 sequence (Q9GZU7 whole entry): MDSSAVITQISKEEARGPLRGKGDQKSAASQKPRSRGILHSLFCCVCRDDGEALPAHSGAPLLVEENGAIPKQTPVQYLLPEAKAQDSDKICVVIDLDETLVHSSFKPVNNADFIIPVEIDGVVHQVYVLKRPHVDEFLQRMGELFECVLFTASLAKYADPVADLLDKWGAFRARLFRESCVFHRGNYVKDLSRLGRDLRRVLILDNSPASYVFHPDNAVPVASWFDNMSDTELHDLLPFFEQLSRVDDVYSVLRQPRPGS

[8] = target: T4, Low molecular weight phosphotyrosine protein phosphatase (Homo sapiens, UniProt P24666); type: functional; settings: read-out: IC50_Mean
T4 sequence (P24666 whole entry): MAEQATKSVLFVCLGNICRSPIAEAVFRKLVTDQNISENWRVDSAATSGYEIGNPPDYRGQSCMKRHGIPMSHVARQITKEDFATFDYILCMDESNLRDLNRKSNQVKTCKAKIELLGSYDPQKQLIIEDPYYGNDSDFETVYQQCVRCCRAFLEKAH

[9] = target: T5, RNA-binding protein pos-1 (Caenorhabditis elegans, UniProt G5EF15); test: disruptors of C. elegans POS-1 RNA interaction – biochemical, fluorescence polarization, dose response (AID 1964);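 further: purified POS-1 fused to maltose binding protein made in E. coli; potency of compounds blocking POS-1 binding to fluorescent RNA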
T5 sequence (G5EF15 whole entry): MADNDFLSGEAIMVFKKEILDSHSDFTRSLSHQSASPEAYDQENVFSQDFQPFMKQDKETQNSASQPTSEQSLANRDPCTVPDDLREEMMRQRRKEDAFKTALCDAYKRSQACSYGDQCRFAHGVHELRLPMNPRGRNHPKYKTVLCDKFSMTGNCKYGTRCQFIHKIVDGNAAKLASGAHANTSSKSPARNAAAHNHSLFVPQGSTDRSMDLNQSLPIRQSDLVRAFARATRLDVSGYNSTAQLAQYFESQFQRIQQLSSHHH

[10] = target: T6, Zinc finger protein mex-5 (Caenorhabditis elegans, UniProt Q9XUB2); test: potency of MEX-5 RNA-binding blockers – biochemical, C. elegans, fluorescence polarization, dose response (AID 1960)
T6 sequence (Q9XUB2 whole entry): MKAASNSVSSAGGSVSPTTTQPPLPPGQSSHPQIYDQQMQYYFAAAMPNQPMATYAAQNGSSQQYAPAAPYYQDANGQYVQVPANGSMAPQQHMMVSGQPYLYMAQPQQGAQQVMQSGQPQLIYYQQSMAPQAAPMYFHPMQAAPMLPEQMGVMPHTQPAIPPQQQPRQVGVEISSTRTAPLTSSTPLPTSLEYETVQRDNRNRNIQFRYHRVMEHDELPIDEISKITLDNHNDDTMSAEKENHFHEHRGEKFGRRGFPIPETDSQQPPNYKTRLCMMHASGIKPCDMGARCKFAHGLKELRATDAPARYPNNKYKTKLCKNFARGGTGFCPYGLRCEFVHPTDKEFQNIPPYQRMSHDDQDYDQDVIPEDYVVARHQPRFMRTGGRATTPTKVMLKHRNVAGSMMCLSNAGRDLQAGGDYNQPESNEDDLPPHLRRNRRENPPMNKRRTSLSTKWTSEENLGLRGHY

[11] = target: T7, Small ubiquitin-related modifier 1 (Homo sapiens, UniProt P63165); test: SUMO1 protein interaction blockers, potency – biochemical, fluorescence polarization, uHTS hits, dose response (AID 624382); type: functional; settings: read-out: IC50_Mean
[12] = target: T7, Small ubiquitin-related modifier 1; test: SUMO1 protein-protein binding blockers, potency – biochemical, FRET, dose response (AID 624383); type: functional; settings: read-out: IC50_Mean
[13] = target: T4, Low molecular weight phosphotyrosine protein phosphatase; type: functional; settings: read-out: IC50_Mean; remark: listed apart in the source
[14] = viability loss in HeLa cells – cytotoxicity control for MgcRacGAP inhibitor project, dose response (AID 624300); type: functional
Genome polyprotein = Genome polyprotein (dengue virus type 2, UniProt P29990); test: flavivirus cap methylation enzyme inhibition – biochemical, confirmation dose response, primary screen (AID 588689); type: functional
[15] = target: Photoreceptor-specific nuclear receptor (Homo sapiens, UniProt Q9Y5X4); type: functional, cell-based;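 further: CHO-S cells with Gal4-NCOR and VP16-NR2E3 two-hybrid luciferase reporter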
Vero = test: viability of Vero cells under compound – cytotoxicity control for flavivirus capping enzyme inhibitors (AID 588742); type: functional; settings: Chlorocebus sabaeus
[16] = target: Heat shock protein HSP 90-alpha (Homo sapiens, UniProt P07900); type: functional, organism-based
[17] = target: T8, Rac GTPase-activating protein 1 (Homo sapiens, UniProt Q9H0H5); test: blockers of MgcRacGAP-driven Rac1 GTP hydrolysis – biochemical, ADP Hunter fluorescence, primary and confirmatory, confirmation (AID 624330); type: functional
T8 sequence (Q9H0H5 whole entry): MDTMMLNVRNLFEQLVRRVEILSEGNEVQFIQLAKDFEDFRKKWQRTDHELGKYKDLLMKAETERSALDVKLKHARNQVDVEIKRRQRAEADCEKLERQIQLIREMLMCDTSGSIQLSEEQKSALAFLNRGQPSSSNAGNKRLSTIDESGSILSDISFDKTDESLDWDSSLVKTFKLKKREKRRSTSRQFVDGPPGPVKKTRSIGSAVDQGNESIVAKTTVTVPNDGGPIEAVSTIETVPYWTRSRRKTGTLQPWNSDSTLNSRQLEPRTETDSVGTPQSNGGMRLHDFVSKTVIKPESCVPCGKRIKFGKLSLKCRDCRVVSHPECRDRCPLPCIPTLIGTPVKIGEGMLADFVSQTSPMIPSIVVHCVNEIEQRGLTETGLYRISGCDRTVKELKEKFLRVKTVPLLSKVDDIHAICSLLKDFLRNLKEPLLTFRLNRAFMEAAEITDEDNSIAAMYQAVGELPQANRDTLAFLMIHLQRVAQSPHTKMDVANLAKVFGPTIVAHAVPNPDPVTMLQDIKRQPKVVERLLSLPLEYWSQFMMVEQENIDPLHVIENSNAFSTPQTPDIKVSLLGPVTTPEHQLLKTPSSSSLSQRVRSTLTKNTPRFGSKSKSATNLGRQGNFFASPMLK

[18] = target: Glucose-6-phosphate 1-dehydrogenase (Homo sapiens, UniProt P11413); test: inhibition of Homo sapiens G6PD, dose series – biochemical, fluorescence, selectivity assay for P. falciparum G6PD inhibitor project, dose response (AID 504792); type: functional
[19] = IGROV1 cell killing – plate reader, dry powder samples, PAX8 inhibitor project, dose response (AID 743043); type: functional, cell-based; settings: IGROV-1
Paired box protein Pax-8 = Paired box protein Pax-8 (Homo sapiens, UniProt Q06710); test: PAX8 transcriptional activity inhibition in RMG-I – RMG-I cells, luciferase, cherry-pick, dose response (AID 687027); type: functional, cell-based;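 further: luciferase reporter driven by Pax8 target thyroperoxidase promoter measured by SteadyGlo luminescence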
[20] = OVCAR-3 cell viability loss – plate reader, dry powder samples, PAX8 inhibitor project, dose response (AID 743044); type: functional, cell-based
[21] = viability loss in HEK293T cells – cell-based, cherry-picks, cytotoxicity control for HIV Vif inhibitor project, dose response (AID 652208); type: functional

T7 sequence (P63165 whole entry): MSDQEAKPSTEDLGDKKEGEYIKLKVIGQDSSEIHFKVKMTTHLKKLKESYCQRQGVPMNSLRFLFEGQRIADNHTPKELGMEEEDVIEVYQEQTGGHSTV
Chain of Beta Lactamase (Q932Y6 whole entry): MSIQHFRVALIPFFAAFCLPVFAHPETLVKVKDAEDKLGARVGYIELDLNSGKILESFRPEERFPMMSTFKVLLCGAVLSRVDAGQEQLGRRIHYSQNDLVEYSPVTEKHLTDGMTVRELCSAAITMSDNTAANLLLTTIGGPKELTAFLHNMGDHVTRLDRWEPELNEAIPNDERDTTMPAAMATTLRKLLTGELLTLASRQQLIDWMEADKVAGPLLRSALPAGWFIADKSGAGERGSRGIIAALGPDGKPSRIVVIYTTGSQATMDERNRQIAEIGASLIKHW
Chain of Paired box protein Pax-8 (Q06710 whole entry): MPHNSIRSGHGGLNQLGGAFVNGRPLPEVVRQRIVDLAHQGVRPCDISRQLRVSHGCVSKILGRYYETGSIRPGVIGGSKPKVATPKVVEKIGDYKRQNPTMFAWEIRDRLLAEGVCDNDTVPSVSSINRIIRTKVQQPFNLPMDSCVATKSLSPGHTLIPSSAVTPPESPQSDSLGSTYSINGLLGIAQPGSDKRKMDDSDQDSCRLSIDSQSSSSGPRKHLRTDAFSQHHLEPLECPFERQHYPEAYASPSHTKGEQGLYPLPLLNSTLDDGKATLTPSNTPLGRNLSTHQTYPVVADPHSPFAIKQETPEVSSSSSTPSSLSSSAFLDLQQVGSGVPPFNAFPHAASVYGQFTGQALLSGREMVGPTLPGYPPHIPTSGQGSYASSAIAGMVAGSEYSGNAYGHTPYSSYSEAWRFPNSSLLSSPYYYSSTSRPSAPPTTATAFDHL
Chain of Photoreceptor-specific nuclear receptor (Q9Y5X4 whole entry, the tested form may be a part): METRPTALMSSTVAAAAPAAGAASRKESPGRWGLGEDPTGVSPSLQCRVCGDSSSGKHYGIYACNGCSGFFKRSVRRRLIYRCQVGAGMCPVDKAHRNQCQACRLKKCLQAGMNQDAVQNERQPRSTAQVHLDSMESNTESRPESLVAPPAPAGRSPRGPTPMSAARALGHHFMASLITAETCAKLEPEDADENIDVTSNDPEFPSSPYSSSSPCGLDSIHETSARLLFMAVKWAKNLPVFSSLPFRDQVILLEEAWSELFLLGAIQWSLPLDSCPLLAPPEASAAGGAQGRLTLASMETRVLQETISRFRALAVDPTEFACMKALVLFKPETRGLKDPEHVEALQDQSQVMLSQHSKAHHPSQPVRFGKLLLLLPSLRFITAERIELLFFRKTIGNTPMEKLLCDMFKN
Chain of Glucose-6-phosphate 1-dehydrogenase (P11413 whole entry): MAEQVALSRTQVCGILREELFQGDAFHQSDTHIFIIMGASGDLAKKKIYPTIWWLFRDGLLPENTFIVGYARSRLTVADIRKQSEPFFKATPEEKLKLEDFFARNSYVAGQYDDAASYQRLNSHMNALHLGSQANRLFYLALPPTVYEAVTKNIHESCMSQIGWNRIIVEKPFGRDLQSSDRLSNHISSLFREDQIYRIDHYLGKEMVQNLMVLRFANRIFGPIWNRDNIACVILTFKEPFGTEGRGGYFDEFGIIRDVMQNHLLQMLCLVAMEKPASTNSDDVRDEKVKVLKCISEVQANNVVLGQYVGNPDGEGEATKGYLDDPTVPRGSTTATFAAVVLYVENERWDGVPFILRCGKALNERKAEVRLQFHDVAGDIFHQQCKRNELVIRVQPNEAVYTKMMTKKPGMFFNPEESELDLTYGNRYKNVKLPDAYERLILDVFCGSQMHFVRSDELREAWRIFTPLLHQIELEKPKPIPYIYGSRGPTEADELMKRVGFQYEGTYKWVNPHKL
Chain of Genome polyprotein (P29990 2492-3391 limits assumed): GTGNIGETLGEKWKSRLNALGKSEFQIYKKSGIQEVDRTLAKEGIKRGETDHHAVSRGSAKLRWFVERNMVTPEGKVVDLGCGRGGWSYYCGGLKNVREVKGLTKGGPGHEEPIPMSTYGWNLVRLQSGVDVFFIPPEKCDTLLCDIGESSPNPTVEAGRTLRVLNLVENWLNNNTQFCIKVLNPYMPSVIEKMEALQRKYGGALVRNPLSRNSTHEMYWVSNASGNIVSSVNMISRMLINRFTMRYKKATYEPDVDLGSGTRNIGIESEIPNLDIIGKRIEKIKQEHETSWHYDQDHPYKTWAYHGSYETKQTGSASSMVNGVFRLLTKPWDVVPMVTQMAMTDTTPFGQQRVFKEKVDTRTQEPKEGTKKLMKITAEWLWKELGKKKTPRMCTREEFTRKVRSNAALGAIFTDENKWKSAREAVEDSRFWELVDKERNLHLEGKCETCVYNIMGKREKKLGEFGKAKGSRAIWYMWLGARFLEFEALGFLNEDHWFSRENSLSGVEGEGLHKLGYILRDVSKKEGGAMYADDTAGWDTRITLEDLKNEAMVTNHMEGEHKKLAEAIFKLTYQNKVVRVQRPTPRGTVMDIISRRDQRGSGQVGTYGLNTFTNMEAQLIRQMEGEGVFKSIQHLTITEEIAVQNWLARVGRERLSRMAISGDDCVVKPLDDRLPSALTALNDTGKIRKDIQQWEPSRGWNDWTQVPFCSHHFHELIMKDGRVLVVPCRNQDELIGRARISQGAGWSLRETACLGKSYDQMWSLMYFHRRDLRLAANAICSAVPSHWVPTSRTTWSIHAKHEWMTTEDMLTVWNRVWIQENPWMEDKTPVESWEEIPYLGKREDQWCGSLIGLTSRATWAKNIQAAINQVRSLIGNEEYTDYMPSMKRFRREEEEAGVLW

## COc1ccc(CNC(=O)c2nc(S(=O)(=O)Cc3ccccc3)ncc2Cl)cc1
[1]
  IC50: 2.96 µM (active)
[2]
  AC50: 30.8 µM (active)
[3]
  AC50: 0.956 µM (active)
[4]
  AC50: 7.01 µM (active)
[5]
  AC50: 4.17 µM (active)
Protein RecA
  EC50: 4.07 µM (active)
Beta Lactamase
  IC50: 21 µM (inactive)

## C[C@H](CO)N1C[C@H](C)[C@H](CN(C)Cc2ccc(Cl)c(Cl)c2)Oc2ccc(NS(=O)(=O)c3ccc(F)cc3)cc2CC1=O
[6]
  AC50: 9.99 µM (active)

## C=CC1=C(C(=O)O)N2C(=O)[C@@H](NC(=O)/C(=N\O)c3csc(N)n3)[C@H]2SC1 (stereo in doubt)
[7]
  IC50: 4.48 µM (active)
[8]
  IC50: 19.6 µM (active)
[9]
  EC50: 49.8 µM (active)
[10]
  EC50: 33.3 µM (active)
[11]
  IC50: > 66.6 µM (inactive)
[12]
  IC50: 6.25 µM (active)
[13]
  IC50: 21.5 µM (inactive)

## O=C1/C(=C\c2ccc([N+](=O)[O-])cc2)CS(=O)(=O)C/C1=C/c1ccc([N+](=O)[O-])cc1
[1]
  IC50: 0.93 µM (active)
[14]
  CC50: 25 µM (active)
Genome polyprotein
  IC50: > 100 µM (active)
[15]
  IC50: 2 µM (active)
Vero
  CC50: 0.46 µM (active)
[16]
  AC50: 0.353 µM (active)
[17]
  IC50: 24.8 µM (active)
Beta Lactamase
  IC50: 36.4 µM (inactive)
[18]
  IC50: > 80 µM (inactive)

## Cc1ccc(S(=O)(=O)Nc2ccc3c(c2)CC(=O)N([C@@H](C)CO)C[C@@H](C)[C@H](CN(C)Cc2ccc(Cl)c(Cl)c2)O3)cc1
[6]
  AC50: 12.3 µM (active)
[19]
  AC50: 49.9 µM (active)
Paired box protein Pax-8
  AC50: 5.67 µM (active)
[20]
  AC50: 31.8 µM (active)

## O=C(c1cc(-c2ccncc2)nc2ccccc12)N1CCN(Cc2ccccc2)CC1
[21]
  AC50: > 52 µM (inactive)
